Measured values published in patent US9352004B2, “Muscle-derived cells (MDCs) for treating muscle- or bone-related injury or dysfunction” (University of Pittsburgh—Of the Commonwealth System of …, priority 1998, dated 2016).
“Also recorded” adds a separate entry of the source. Marks after values point to notes of the source that are not given here.

Tests used:
bladder = conditions: rat, in vivo
Description: Micturition Pattern Measurement: Urination pattern profiles were obtained using a specialized metabolic cage which deflects voided urine for collection and quantification over a 24 hour period. Micturition parameters evaluated in the described experiments included total urine output/24 hours, number of micturitions/24 hours and mean volume per micturition (M. D. Chancellor et al., 1994, J. Urol., 151:250-254; T. Watanabe et al., 1996, J. Urol., 156:1507-1510).
To first assess the role of intravesicle NO on cyclophosphamide-induced cystitis, female S.D. rats received a single intraperitoneal injection of CYP (100 mg/kg) or vehicle. Voiding parameters (mean voided volume and number of voids) were then monitored for 24 hours in a metabolic cage. Forty-eight hours after CYP injection, bladder function was studied using continuous saline infusion (0.04 ml/min) cystometry via PE-50 transurethral catheter under urethane anesthesia.

bladder wall = assay type: in vivo, rat; conditions: 100 μM TBH4, control areas of the bladder
Description: For gene therapy experiments, myoblasts were transduced with the adenovirus containing the human inducible nitric oxide synthase (iNOS) gene at a multiplicity of infection of 50 (MOI=50) and were injected into the bladder and studied after 2 to 7 days.
The bladder was injected with a similar solution; however, the cell concentration ranged from 1.33×10^5 to 1×10^6 cells per 10 μl injection. Transduced myoblasts were prepared by incubating them for 24 hours with adenovirus vector containing the iNOS gene at a multiplicity of infection of 50 virus particles per cell. Immunohistochemical staining was performed on the cultured cells to ensure adequate infection and iNOS protein production.
NO release in the bladder and penis was measured by placing the tip of a Naflon-coated porphyrinic microsensor (dia. 10 μM; detection limit, 5 nM; response time, 1 ms) directly on the bladder surface (mucosal and serosal) and on the corporal cavernosum, respectively.

myoblasts = experiment: Effect of growth factors on myoblast proliferation and fusion in vitro; assay type: cell-based; conditions: 1, 10 and 100 ng/ml, 48 and 96 hours
Description: Several growth factors, including acidic and basic fibroblast growth factors (aFGF and bFGF); epidermal growth factor (EGF); insulin-like growth factor-1 (IGF-1); platelet derived growth factor (PDGF); transforming growth factor β or α (TGF-β or TGF-α); and nerve growth factor (NGF) have been investigated for their ability to enhance the myogenic activity of muscle cells in vitro. Myoblasts were cultured with these trophic factors at different concentrations (1, 10 and 100 ng/ml), and the myoblast proliferation and differentiation were monitored at 48 and 96 hours post-incubation.

[1] = test system: meniscal fibrochondrocytes; experiment: Growth factors on meniscal fibrochondrocytes in vitro; assay type: cell-based; conditions: for expression of collagen and non-collagen proteins: meniscal fibrochondrocytes
Source text: In vitro data detail the effects of numerous growth factors on fibroblast proliferation and collagen production.

injured muscle = experiment: Muscle healing and twitch/tetanic strength in vivo after muscle contusion, laceration or strain; set-up: species or system mouse; key to twitch strength / tetanic strength: (+) improvement in strength vs. non-injected muscles; (−) no improvement in strength vs. non-injected muscles; conditions: for number of regenerating myofibers in vivo: direct injection into injured muscle (laceration, contusion, strain)
Description: Briefly, the muscle laceration was performed by cutting the gastrocnemius muscle of a mouse with scissors at 60% of its length from its distal insertion, 75% of its width, and 50% of its thickness. The muscle contusion was made by dropping a 16 gram ball through an impactor from a height of 100 centimeters onto the mouse's gastrocnemius muscle, and the muscle strain was performed by elongating the muscle-tendon unit to a pre-determined strain point at the rate of 1 cm/min.
In order to evaluate muscle healing following injury, histological staining (hematoxylin-eosin) in conjunction with immunohistochemical techniques were employed to assess the expression of desmin and vimentin. Since desmin is a cytoskeletal protein uniformly expressed in regenerating myofibers, it has been used to specifically locate regenerating myofibers. Vimentin is expressed in mononucleated fibrocytes and macrophages and has been used herein as a marker for fibrosis. […]

urethral smooth muscle = experiment: Intraurethral NO donors: urethral perfusion pressure and isovolumetric bladder pressure; conditions: rat, in vivo, iv
Description: To first assess the role of NO donors on smooth muscle, urethral perfusion pressure and isovolumetric bladder pressure were measured with catheters inserted through the bladder dome in urethane anesthetized female S.D. rats (250-300 grams), (n=9). The catheter assembly was wedged in the bladder neck to block passage of fluid between the bladder and urethra without affecting the nerve supply to the organs. The external urethra was not catheterized. Responses were examined in the control state at an urethral saline infusion speed of 0.075 ml/min. After blocking striated urethral sphincter with intravenous alpha-bungarotoxin administration (100 mcg/kg), intraurethral drugs were administered.

O=P1(N(CCCl)CCCl)NCCCO1 (stereo not shown) [CYP, cyclophosphamide]
number of micturitions during the 24 hours after CYP injection (bladder): 117±86 | total micturition volume (bladder): 20.5 ± 9.2 mL | voiding frequency after 7 days (bladder): 38±4

C[C@H](O)[C@H](O)[C@H]1CNc2nc(N)[nH]c(=O)c2N1 [TBH4, tetrahydrobiopterin]
duration of NO release spike (bladder wall): < 5 s | spike in NO release (bladder wall): 1 to 5 nM

EGF: epidermal growth factor
Fusion (differentiation into myotubules) (myoblasts): Inhibit | Proliferation (myoblasts): Inhibit | proliferation of the meniscal fibrochondrocytes [1]: improve | expression of collagen and non-collagen proteins [1]: improve

IGF: insulin-like growth factor-1
Fusion (differentiation into myotubules) (myoblasts): Stimulate | Proliferation (myoblasts): Stimulate | Fusion (differentiation into myotubules) (myoblasts; listed as IGF-1): increase myoblast differentiation into myotubules | Proliferation (myoblasts; listed as IGF-1): significantly enhanced | tetanic strength (injured muscle; Muscle contusion): +/+ | twitch strength (injured muscle; Muscle contusion): +/+ | tetanic strength (injured muscle; Muscle laceration): +/+ | twitch strength (injured muscle; Muscle laceration): +/+ | tetanic strength (injured muscle; Muscle strain): +/+ | twitch strength (injured muscle; Muscle strain): +/+ | number of regenerating myofibers in vivo (injured muscle): increase the number of regenerating myofibers

NGF: nerve growth factor
Fusion (differentiation into myotubules) (myoblasts): increase myoblast differentiation into myotubules; also recorded: Stimulate | Proliferation (myoblasts): significantly enhanced; also recorded: Stimulate | tetanic strength (injured muscle; Muscle contusion): +/+* | twitch strength (injured muscle; Muscle contusion): +/+* | tetanic strength (injured muscle; Muscle laceration): −/− | twitch strength (injured muscle; Muscle laceration): −/− | tetanic strength (injured muscle; Muscle strain): − | twitch strength (injured muscle; Muscle strain): + | number of regenerating myofibers in vivo (injured muscle): increase the number of regenerating myofibers

PDGF
Fusion (differentiation into myotubules) (myoblasts): Inhibit | Proliferation (myoblasts): Inhibit | proliferation of the meniscal fibrochondrocytes [1]: improve | expression of collagen and non-collagen proteins [1]: improve

TGF-α: transforming growth factor α
Fusion (differentiation into myotubules) (myoblasts): Inhibit | Proliferation (myoblasts): Inhibit | proliferation of the meniscal fibrochondrocytes [1]: improve | expression of collagen and non-collagen proteins [1]: improve

TGF-β
Fusion (differentiation into myotubules) (myoblasts): Inhibit | Proliferation (myoblasts): Inhibit

a-FGF: acidic fibroblast growth factor
Fusion (differentiation into myotubules) (myoblasts): Stimulate | Proliferation (myoblasts): Inhibit | Fusion (differentiation into myotubules) (myoblasts; listed as aFGF): increase myoblast differentiation into myotubules

alpha-bungarotoxin
high frequency oscillations of urethral pressure (urethral smooth muscle): abolished

b-FGF: basic fibroblast growth factor
Fusion (differentiation into myotubules) (myoblasts): Stimulate | Proliferation (myoblasts): significantly enhanced; also recorded: Stimulate | Fusion (differentiation into myotubules) (myoblasts; listed as bFGF): increase myoblast differentiation into myotubules | proliferation of the meniscal fibrochondrocytes [1]: improve | expression of collagen and non-collagen proteins [1]: improve | tetanic strength (injured muscle; Muscle contusion): +/+ | twitch strength (injured muscle; Muscle contusion): +/+ | tetanic strength (injured muscle; Muscle laceration): +/+ | twitch strength (injured muscle; Muscle laceration): +/+ | tetanic strength (injured muscle; Muscle strain): +/+ | twitch strength (injured muscle; Muscle strain): +/+ | number of regenerating myofibers in vivo (injured muscle): increase the number of regenerating myofibers
